Results on 1 molecule are retold here after patent publication US20040009904A1, “APL immunoreactive peptides, conjugates thereof and methods of treatment for aPL antibody-mediated pathologies” (priority 1995, published 2004).

Bridge positions count the residues as written; N and C are the ends. Peptide text beside a SMILES is read from it.

The subject of experiment [1] is ACA-6501. Kind of experiment: Phage-ELISA. It is filed as binding, human. Conditions: phage clones coated on wells, affACA-6501 2.5 μg/mL. The procedure:
This method of selecting phage requires very tight binding of the insert to the screening antibody. Phage are directly coated onto wells of a microtitration plate and incubated with the screening antibody. Following washes to remove unbound antibody, an anti-human IgG alkaline phosphatase conjugate is added to bind any aPL antibodies bound to the phage. APL antibodies are then detected by adding a calorimetric substrate to the well which will react with alkaline phosphatase according to methods well known in the art.
Three mL cultures were prepared from 35 clones previously isolated with affinity purified ACA-6501 in several phage library screens as well as one fUSE 2 phage clone lacking a peptide insert which was used as a control. After centrifugation for 3 minutes at 17,000×g, 100 μL from each phage supernatant (adjusted to −2×10^11 particles/mL, based on absorbance) was added to microtitration plate wells (Falcon, Becton-Dickinson Labware, Lincoln Park, N.Y.) and allowed to incubate overnight at 4° C. Following four washes with TBS 7.4, the plate was blocked with 125 μL of 0.5% BSA/TBS for 1 hour at RT. After another four TBS washes, 100 μL of affACA-6501 previously diluted to 2.5 μg/mL in TBS/BSA was added to each well and allowed to incubate 1 hour at 37° C. Following an additional four washes, 100 μL anti-human IgG diluted 1:1000 in TBS/0.5% Tween was added to each well. After 1 hour at RT, enzyme substrate was added and the incubation allowed to proceed for 2 hours. Following the addition of 50 μL 0.2 M Na2HPO4 to stop the reaction, absorbance was measured at 550 nm in the automated plate absorbance reader. […] The sequences for these clones are showvn in Table 2.
Background: ELISA stands for enzyme-linked immunosorbent assay.

In the next experiment the test system is ACA antibodies. Kind of experiment: Competitive binding peptide ACA ELISA, cardiolipin/β2-GPI-coated plates, panel of ACA antibodies (average). Conditions: peptide 1 mg/mL, average over nine antibodies. Set-up: species or system human. As for the experimental part:
A variation of this assay uses microtitration plates coated with human β2-glycoprotein I/cardiolipin (β2-GPI/CL) instead of tetravalent peptide and tests the ability of monomeric peptides to block the binding of aPL antibody to the epitope(s) on β2-GPI/CL. In this assay, IgG-depleted human serum at an optimized concentration is used as a source of β2-GPI. The monomeric peptides at several concentrations are incubated with an optimized concentration of aPL antibody in a manner analogous to the assay which employs tetravalent peptide as a plate substrate. Following the incubation of aPL/peptide in (β2-GPI/CL) plates, antibody binding and the peptide concentration required for 50% inhibition is determined at half-maximal absorbance as in the tetravalent assay.
Peptide sequences for all five peptides immediately follow the table. All were tested using the competitive binding peptide ACA ELISA using CL/β2-GPI plates as described herein.
As noted in Section I above, one synthetic peptide, 6641/3G3 was tested against several high titer ACA antisera. This peptide appeared to be crossreactive with the vast majority of ACA antisera tested as illustrated in FIG. 14.
(B) Immulon I® 96-well, flat-bottom, polystyrene microtitration plates (Dynatech Laboratories, Inc., Chantilly, Va.) were coated with 30 μL/well of cardiolipin (CL, 50 μg; Sigma Chemical Co., St. Louis, Mo.) in ethanol. Two control wells received 30 μL ethanol only. After overnight evaporation at 4° C., each well was blocked with 200 μL of 5% (w/v) fish gelatin in PBS for 2 hours at RT.
The CL/β2-GPI microtitration plate was washed 5 times with TBS and 100 μL aliquots in duplicate from Eppendorf tubes #1, 2, 3, and 4 containing the antibody-peptide (or no peptide mixtures) were added to the wells. A volume of 100 μL from tube #4 was added to the duplicate control wells containing no cardiolipin. The microtitration plate was incubated for 1 hour at RT with agitation at 40 rpm in an orbital shaker (American Scientific, Rotator V), washed 5 times with TBS and then 100 μL of 1:1000 goat anti-human IgG alkaline phosphatase conjugate (Zymed, Cat No. 62-8422) in 0.5% (w/v) BSA-TBS was added. Following incubation for 1 hour at RT, the microtitration plate was again washed 5 times with TBS and the colorimetric enzyme detection developed by adding 100 μL of PMPP solution (7.8 g phenolphthalein monophosphate plus 69.5 g of 2-amino-2-methyl-1-propanol in 100 mL water stock solution diluted 1:26 with water). After 21 minutes, the reaction was stopped by adding 50 μL of 0.2 M Na2HPO4 (Mallinckrodt) to each well. Absorbance at 550 nm was read in a microplate reader (Bio-Tek Instruments, Model EL 311). The amount of peptide that inhibited ACA-6501 binding by 50%, the IC50, was calculated from the graph at the intersection of half-maximal absorbance with amount of peptide added.

For experiment [2], the system named is ACA-6501. Kind of experiment: Competitive binding peptide ACA ELISA, cardiolipin/β2-GPI-coated plates. Set-up: species or system human. Conditions: peptide 1 mg/mL, affinity purified antibody. The method, boiled down:
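Monomeric peptides at several amounts were preincubated ~1 h at RT with ACA-6501 serum (final 1:400), then added to cardiolipin-coated, fish-gelatin-blocked plates with β2-GPI for 1 h at RT. Bound IgG was detected with alkaline phosphatase anti-human IgG and phenolphthalein monophosphate, read at 550 nm. IC50 was the peptide amount at half-maximal absorbance.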

As for `CC(C)C[C@@H]1NC(=O)[C@H](CC(C)C)NC(=O)[C@H](CC(C)C)NC(=O)[C@@H](NC(=O)[C@@H]2CCCN2C(=O)CNC(=O)[C@H](C)N)CSSC[C@@H](C(=O)N2CCC[C@H]2C(=O)NCC(=O)O)NC(=O)[C@H](CCCNC(=N)N)NC(=O)[C@H](CC(=O)O)NC(=O)[C@@H]2CCCN2C(=O)[C@H](C)NC1=O` [3B10, AGPCLLLAPDRCPG] (H-AGPCLLLAPDRCPG-OH; disulfide 4-12), the “signal in the phage-ELISA” value in the experiment with ACA-6501 [1] is recorded as “significant signals”. The “Percent Inhibition of AffACA by Peptide Monomers, Ave.” value in the experiment with ACA antibodies was found to be 65%. In addition, in the experiment on ACA-6501 [2], the “Percent Inhibition of AffACA by Peptide Monomers, 6501” value is 60%.
